From patent US20030040510A1, “Selective estrogen receptor modulators in combination with estrogens” (Endorecherche, Inc., priority 2000, published 2003)
Structures can show the parent of a compound that is named as a salt. Marks after values point to notes of the source that are not given here.

Key:
[1] = test system: endometrial epithelium; assay: Thickness of uterine (endometrial) epithelial cells in the mice of Example 8; assay type: in vivo, nude mice; conditions: for Endometrial epithelium thickness: OVX + antiestrogen 200 μg daily, no estrone, 161 days
From the text: The 17 groups included two control groups (OVX and OVX+Estrone), seven groups supplemented with an estrone implant and treated with an antiestrogen and eight other groups that received an antiestrogen alone. The estrone implants were then removed from the animals in the ovariectomized control group (OVX) and in groups that were to receive the antiestrogen alone. […] Tamoxifen was purchased from […], Israel) while toremifene citrate was purchased from Orion (Espoo, Finland). […] Animals in both control groups received 0.2 ml of the vehicle alone. The antiestrogen suspensions at the appropriate concentration were prepared each month, stored at 4° C. and used under constant agitation. Powder stock were hermetically stored at 4° C. […] After 161 days of treatment, the remaining animals were anesthetized with isoflurane and killed by exsanguination. […] The uteri were prepared to evaluate endometrial thickness by image analysis performed with Image Pro-Plus (Media Cybernetics, Maryland, USA). […] Hematoxylin- and eosin-stained sections of mice uteri were analysed. […] Mean epithelial cell height was measured in all animals of each group.

[2] = test system: ZR-75-1 breast tumors; assay: Growth and response category of human ZR-75-1 breast tumors in OVX nude mice, 7 antiestrogens, 161 days (Example 8); assay type: in vivo; conditions: 161 days; for Change of ZR-75-1 tumor size compared to the OVX control group: 200 μg daily alone
Description: The mice (5 per cage) were housed in vinyl cages equipped with air filter lids, which were kept in laminar airflow hoods and maintained under pathogen-limiting conditions. The photoperiod was 12 hours of light and 12 hours of darkness (lights on at 07:15). Cages, bedding and food (Agway Pro-Lab R-M-H Diet #4018) were autoclaved before use. Water was autoclaved and provided ad libitum. Bilateral ovariectomy was performed under isoflurane-induced anesthesia. […] Randomization and treatments were started one week later. […] The 17 groups included two control groups (OVX and OVX+Estrone), seven groups supplemented with an estrone implant and treated with an antiestrogen and eight other groups that received an antiestrogen alone. The estrone implants were then removed from the animals in the ovariectomized control group (OVX) and in groups that were to receive the antiestrogen alone. […] Tamoxifen was purchased from […], Israel) while toremifene citrate was purchased from Orion (Espoo, Finland). […] Animals in both control groups received 0.2 ml of the vehicle alone. The antiestrogen suspensions at the appropriate concentration were prepared each month, stored at 4° C. and used under constant agitation. Powder stock were hermetically stored at 4° C. […] Tumor response was assessed at the end of the study or at death of each animal, if it occurred during the course of the experiment. In this case, only data of mice that survived for at least half of the study (84 days) were used in the tumor response analysis.

[3] = test system: breast and endometrial tissues; assay: Antiestrogens tested for SERM function and estrogenic activity in breast and endometrium; conditions: for Estrogenic activity in breast and endometrial tissues: physiological or pharmacological concentrations
From the text: As used herein, a selective estrogen receptor modulator (SERM) is a compound that either directly or through its active metabolite functions as an estrogen receptor antagonist (“antiestrogen”) in breast tissue, yet provides estrogenic or estrogen-like effect on bone tissue and on serum cholesterol levels (i.e. by reducing serum cholesterol). Non-steroidal compounds that function as estrogen receptor antagonists in vitro or in human or rat breast tissue (especially if the compound acts as an antiestrogen on human breast cancer cells) is likely to function as a SERM. Conversely, steroidal antiestrogens tend not to function as SERMs because they tend not to display any beneficial effect on serum cholesterol. […] These SERMs may be called “pure SERMs”. […] This second series of SERMs may be called “mixed SERMs”. The unwanted estrogenic activities of these “mixed SERMs”, may be inhibited by addition of pure “SERMs” as shown in FIGS. 6 and 7 in in vitro tests and in FIG. 9 in an in vivo test of breast cancer.

[4] = test system: uterus and vagina of ovariectomized mice; assay: Uterine and vaginal weight in ovariectomized mice treated or not with estrone (9 days oral); assay type: in vivo, BALB/c mice
Description: (St-Constant, Quebec, Canada) and housed 5 per cage in a temperature (23±1° C.)—and light (12 h light/day, lights on at 7:15)—controlled environment. The mice were fed rodent chow and tap water ad libitum. […] Ten mice were kept intact as controls. […] Compounds were dissolved in ethanol (4% final concentration) and administered in 0.4% methylcellulose. Mice in the intact and OVX control groups received the vehicle alone (4% ETOH-0.4% methylcellulose) during the 9-day period. The animals were killed by exsanguination at the abdominal aorta on the 11th morning following ovariectomy.

[5] = test system: ovariectomized female rats; assay: Prevention of bone loss, body fat, serum cholesterol and ALP, 26-week treatment of OVX rats (Example 5A, experiment 2); assay type: in vivo, Sprague-Dawley rats; conditions: 26 weeks
Description: (§1) Ten to twelve week-old female Sprague-Dawley rats (Crl:CD(SD)Br) (Charles River Laboratory, St-Constant, Canada) weighing approximately 220-270 g at start of treatment were used. The animals were acclimatized to the environmental conditions (temperature: 22±3° C.; humidity: 50±20%; 12-h light-12-h dark cycles, lights on at 07:15 h) for at least 1 week before starting the experiments. The animals were housed individually and were allowed free access to tap water and a pelleted certified rodent feed (Lab Diet 5002, Ralston Purina, St-Louis, Mo.). Experiments were conducted in an animal facility approved by the Canadian Council on Animal Care (CCAC) and the Association for Assessment and Accreditation of Laboratory Animal Care (AAALAC) in accordance with the CCAC Guide for Care and Use of Experimental Animals.
On day 1 of the study, the animals of the appropriate groups were bilaterally OVX under isoflurane anesthesia. Tested compounds were administered as suspension in 0.4% methylcellulose by oral gavage. Treatments were initiated on day 2 of the study and were performed once daily during 26 weeks. In both experiments, animals not receiving a test article were treated with the appropriate vehicle alone during the same period.
(§2) After 3 months (experiment 1) or 26 weeks (experiment 2) of treatment, individual rats under Isoflurane anesthesia had their whole body skeleton and lumbar spine scanned using dual energy x-ray absorptiometry (DEXA; QDR 4500A, Hologic, Waltham, Mass.) and a Regional High Resolution Scan software. The bone mineral density (BMD) of the lumbar spine (vertebrae L2 to L4) and the total body composition (fat percentage) were determined.
(§3) After 3 months (experiment 1) or 26 weeks (experiment 2) of treatment, blood samples were collected at the jugular vein from overnight fasted animals (under Isoflurane anesthesia). Samples were processed for serum preparation and frozen at −80° C. until assay. Serum cholesterol levels and alkaline phospatase activity (ALP) were determined using the Boehringer Mannheim Diagnostic Hitachi 911 Analyzer (Boehringer Mannheim Diagnostic Laboratory Systems).

[6] = test system: OVX rats having established osteopenia; assay: Treatment of OVX rats having established osteopenia, 26 weeks (Example 5B): BMD, total body fat; assay type: in vivo, Sprague-Dawley rats; conditions: treatment started 10 weeks after OVX, 26 weeks daily
Description: as §1, with “Height” for “Ten”, “nine month-old” for “twelve week-old”, “Canada)” for “Canada) weighing approximately 220-270 g at start of treatment”, “used in this experiment.” for “used.”, “prior to” for “before starting”, “ovariectomy. Animals were bilaterally ovariectomized (OVX) under isoflurane anesthesia. Twenty animals were kept intact as control.” for “experiments.”
Treatments were initiated 10 weeks after the ovariectomy and were performed once daily during 26 weeks. Animals not receiving a test article were treated with the appropriate vehicle alone during the same period.
Prior to the OVX, prior to the first day treatment (10 weeks after OVX) and after 26 weeks of treatment, individual rats under Isoflurane anesthesia had their whole body skeleton, lumbar spine and right femur scanned using dual energy x-ray absorptiometry (DEXA; QDR 4500A, Hologic, Waltham, Mass.) and a Regional High Resolution Scan software. The bone mineral density (BMD) of the lumbar spine (vertebrae L2 to L4), femur and the total body composition (fat percentage) were determined.

[7] = test system: ovariectomized rats supplemented with 17β-estradiol; assay: EM-652.HCl with oral 17β-estradiol for 2 weeks in OVX rats: uterus, endometrial epithelium, vagina, serum cholesterol (Example 10); assay type: in vivo, Sprague-Dawley rats
Description: Ten to twelve week-old female Sprague-Dawley rats (Crl:CD(SD)Br) (Charles River Laboratory, St-Constant, Canada) weighing 215-265 g at time of ovariectomy were used. The animals were housed individually in an environmentally-controlled room (temperature: 22±3° C.; humidity: 50±20%; 12-h light-12-h dark cycles, lights on at 07:15 h). The animals were allowed free access to tap water and a certified rodent feed (Lab Diet 5002 (pellet), Ralston Purina, St-Louis, Mo.). The experiment was conducted in an animal facility approved by the Canadian Council on Animal Care (CCAC) and the Association for Assessment and Accreditation of Laboratory Animal Care (AAALAC) in accordance with the CCAC Guide for Care and Use of Experimental Animals.
On the first day of the study, the animals of the appropriate groups were bilaterally ovariectomized (OVX) under isoflurane anesthesia. The tested compounds were then given once daily by oral gavage as a suspension in 0.4% methylcellulose (0.5 ml/rat) from day 1 to day 14 of the study. Animals of groups 1 and 2 received the vehicle alone during the same time period. On day 15 of the study, 4 animals per group were perfused with 10% buffered formalin and tissues were processed for histological examination. The other animals were killed by exsanguination at the abdominal aorta under isoflurane anesthesia. The uterus and vagina were removed, stripped of remaining fat and weighed. A specimen from each uterus was fixed in 10% buffered formalin for determination of the height of endometrial epithelial cells using a computerized-assisted program (Software Image-Pro Plus).
Total cholesterol was measured on serum samples collected from overnight fasted animals using a Boehringer Mannheim Diagnostic Hitachi 911 Analyzer (Boehringer Mannheim Diagnostic Laboratory Systems).

[8] = test system: ovariectomized female rats; assay: Prevention of bone loss, body fat, serum cholesterol and ALP, 3-month treatment of OVX rats (Example 5A, experiment 1); assay type: in vivo, Sprague-Dawley rats; conditions: OVX rats, 3 months
Description: as §1
On day 1 of the study, the animals of the appropriate groups were bilaterally ovariectomized (OVX) under isoflurane anesthesia. […] Treatments were initiated on day 2 of the study and were performed once daily during 3 months.
as §2, §3

[9] = 10 μg alone, absence of estrone, OVX mice

Structure (SMILES): Cl.O=C(c1ccc(OCCN2CCCCC2)cc1)c1c(-c2ccc(O)cc2)sc2cc(O)ccc12 [Raloxifene, [2-(4-hydroxyphenyl)-6-hydroxybenzo[b]thien-3-yl][4-[2-(1-piperidinyl)ethoxy]phenyl]-methanone hydrochloride]
- Endometrial epithelium thickness [1]: 22.33^a ± 0.05 μm
- Progressing tumors ([2]; 50 μg daily + estrone): 81%
- Change of ZR-75-1 tumor size compared to the OVX control group ([2]; absence of estrone): did not significantly change
- Function as SERM [3]: found to function as SERMs
- Estrogenic activity in breast and endometrial tissues [3]: have some estrogenic activities
- Stimulation of uterine weight [4, 9]: 85%
- Stimulation of vaginal weight [4, 9]: 56%
- Inhibition of estrone-stimulated vaginal weight ([4]; 10 μg daily oral, 9 days, OVX mice + E1): 24%

Structure (SMILES): CC/C(=C(\c1ccc(I)cc1)c1ccc(OCCN2CCCC2)cc1)c1ccccc1 [Idoxifene, (E)-1-[2-[4-[1-(4-Iodophenyl)-2-phenyl-1-butenyl]phenoxy]ethyl]pyrrolidine]
- Inhibition of the stimulatory effect of estrone on epithelial height ([1]; 50 μg daily oral + estrone): 50%
- Progressing tumors ([2]; 50 μg daily + estrone): 71%
- Progressing tumors ([2]; 200 μg daily, absence of estrone): 33%
- Function as SERM [3]: found to function as SERMs
- Estrogenic activity in breast and endometrial tissues [3]: have some estrogenic activities

Structure (SMILES): CC/C(=C(/c1ccc(OCCN(C)C)cc1)c1cccc(O)c1)c1ccccc1 [Droloxifene, (E)-3-[1-[4-[2-(Dimethylamino)ethoxy]phenyl]-2-phenyl-1-butenyl]phenol]
- Endometrial epithelium thickness [1]: 18.50 ± 0.07 μm
- Progressing tumors ([2]; 50 μg daily + estrone): 100%
- Change of ZR-75-1 tumor size compared to the OVX control group ([2]; absence of estrone): did not significantly change
- Function as SERM [3]: found to function as SERMs
- Estrogenic activity in breast and endometrial tissues [3]: have some estrogenic activities

Structure (SMILES): Oc1ccc2c(c1)CC[C@H](c1ccccc1)[C@@H]2c1ccc(OCCN2CCCC2)cc1 (racemic) [Lasofoxifene, cis-1R-[4′-pyrrolidino-ethoxyphenyl]-2S-phenyl-6-hydroxy-1,2,3,4,-tetrahydronaphthalene D-(−)-tartrate salt]
- Function as SERM [3]: found to function as SERMs
- Serum cholesterol ([5]; OVX rats): 0.60 ± 0.02 mmol/L
- OVX-induced increase on serum cholesterol levels ([5]; alone or in combination with Premarin): completely prevented

Structure (SMILES): C[C@]12CC[C@@H]3c4ccc(O)cc4CC[C@H]3[C@@H]1CC[C@@H]2O [E2, 17β-estradiol, reference compound]
- Femoral BMD [6]: completely prevented the further decrease
- Lumbar spine BMD [6]: completely prevented the further decrease
- Total body fat [6]: prevented the 17% increase
- Endometrial epithelial height ([7]; OVX + E2 2 mg/kg): 41.9±1.2 μm
- Endometrial epithelial height higher than in intact control animals ([7]; OVX + E2 2 mg/kg): 34.7%
- Inhibition of serum cholesterol levels ([7]; OVX + E2 2 mg/kg): 53%
- Vaginal weight ([7]; OVX + E2 2 mg/kg): 149.9 ± 9.0 mg
- Uterine weight ([7]; OVX + E2 2 mg/kg oral daily, 2 weeks): 490 ± 26 mg
- Serum ALP [8]: 59 ± 4 IU/L
